Reference: patent US20250282827A1, “LIPIDATED POLYMYXIN ANALOGUES” (priority 2021, published 2025)
Values after ≈ are worked out from the molar mass of the structure shown. Where two headings read alike, the source gives them in different places. Positions of bridges follow the written chain, without caps; N, C: chain ends. Non-standard residues stand in square brackets, D forms with d. Residues, ends and D or L forms follow the SMILES beside them. *: point of attachment. Ethyl(2-propionyloxy) = CCC(=O)OCC*; Ethyl(2-OBz) = O=C(OCC*)c1ccccc1; Lauroyl = CCCCCCCCCCCC(=O)*; hCys = N[C@@H](CCS)C(=O)O; Dab = NCC[C@H](N)C(=O)O; X4 = CCCCCCCC(=O)OCC*; X1 = CCCCCC(=O)OCC*; X13 = CCCCC(=O)OCC*; Mpa = O=C(O)CCS

Legend:
E. coli ATCC 25922 = type: cell-based, Escherichia coli
Source text: (§1) All 81 compounds prepared in Examples 2 and 3 underwent screening against a panel of Gram-negative bacterium to assess their ability to inhibit bacterial growth. […] The median value is presented.

A. baumannii ATCC 19606 = type: cell-based, Acinetobacter baumannii
Source text: as §1

P. aeruginosa ATCC 27853 = type: cell-based, Pseudomonas aeruginosa
Source text: as §1

K. pneumoniae ATCC 33495 = type: cell-based, Klebsiella pneumoniae
Source text: as §1

[1] = tested on: K. pneumoniae ATCC 700603; type: cell-based, Klebsiella pneumoniae
Source text: as §1

[2] = tested on: K. pneumoniae ATCC MS6671; type: cell-based, Klebsiella pneumoniae
Source text: as §1

E. coli ATCC MS8345 = type: cell-based, Escherichia coli
Source text: as §1
Expansion of the polymyxin macrocycle by substituting […]) offered little advantage in antimicrobial activity but was generally well tolerated although for A. baumanni and P. aeruginosa this was detrimental.

Row | MIC E. coli ATCC 25922 (E. coli ATCC 25922; ATCC 25922) | MIC A. baumannii ATCC 19606 (A. baumannii ATCC 19606; ATCC 19606) | MIC P. aeruginosa ATCC 27853 (P. aeruginosa ATCC 27853; ATCC 27853) | MIC K. pneumoniae ATCC 33495 (K. pneumoniae ATCC 33495; ATCC 33495) | MIC K. pneumoniae ATCC 700603 ([1]; ATCC 700603) | MIC K. pneumoniae ATCC MS6671 ([2]; ATCC MS6671) | MIC E. coli ATCC MS8345 (E. coli ATCC MS8345; ATCC MS8345) | Structure (SMILES) | MIC E. coli ATCC 25922 (E. coli ATCC 25922; median of triplicate) | MIC A. baumannii ATCC 19606 (A. baumannii ATCC 19606; median of triplicate) | MIC P. aeruginosa ATCC 27853 (P. aeruginosa ATCC 27853; median of triplicate) | MIC K. pneumoniae ATCC 33495 (K. pneumoniae ATCC 33495; median of triplicate) | MIC K. pneumoniae ATCC 700603 ([1]; median of triplicate) | MIC K. pneumoniae ATCC MS6671 ([2]; median of triplicate) | MIC E. coli ATCC MS8345 (E. coli ATCC MS8345; colistin-resistant strain, median of triplicate)
1 | 0.5 µg/mL (≈ 0.4 µM) | 32 µg/mL (≈ 25.6 µM) | 2 µg/mL (≈ 1.6 µM) | 0.5 µg/mL (≈ 0.4 µM) | 1 µg/mL (≈ 0.799 µM) | >32 µg/mL | >32 µg/mL | CCC(=O)OCCSCCC(=O)N[C@@H](CCN)C(=O)N[C@H](C(=O)N[C@@H](CCN)C(=O)N[C@H]1CCNC(=O)[C@H]([C@@H](C)O)NC(=O)[C@H](CCN)NC(=O)[C@H](CCN)NC(=O)[C@H](CC(C)C)NC(=O)[C@@H](Cc2ccccc2)NC(=O)[C@H](CCN)NC1=O)[C@@H](C)O [Compound 59] ([Mpa](Ethyl(2-propionyloxy))[Dab]T[Dab][Dab][Dab][dF]L[Dab][Dab]T; lactam 5-C) |  |  |  |  |  |  | 
2 | 0.25 µg/mL (≈ 0.195 µM) | 2 µg/mL (≈ 1.56 µM) | 0.5 µg/mL (≈ 0.39 µM) | 0.25 µg/mL (≈ 0.195 µM) | 0.25 to 0.5 µg/mL | >32 µg/mL | 16 µg/mL (≈ 12.5 µM) | CCC(=O)OCCSCC[C@H](N)C(=O)N[C@@H](CCN)C(=O)N[C@H](C(=O)N[C@@H](CCN)C(=O)N[C@H]1CCNC(=O)[C@H]([C@@H](C)O)NC(=O)[C@H](CCN)NC(=O)[C@H](CCN)NC(=O)[C@H](CC(C)C)NC(=O)[C@@H](Cc2ccccc2)NC(=O)[C@H](CCN)NC1=O)[C@@H](C)O [Compound 60] (H-[hCys](Ethyl(2-propionyloxy))[Dab]T[Dab][Dab][Dab][dF]L[Dab][Dab]T; lactam 5-C) |  |  |  |  |  |  | 
3 | 4 µg/mL (≈ 3.35 µM) | >16 µg/mL | 4 µg/mL (≈ 3.35 µM) | 2 µg/mL (≈ 1.67 µM) | 4 µg/mL (≈ 3.35 µM) | >32 µg/mL | >32 µg/mL | CCCCC(=O)OCCSC[C@@H](N)C(=O)N[C@H](C(=O)N[C@@H](CCN)C(=O)N[C@H]1CCNC(=O)[C@H]([C@@H](C)O)NC(=O)[C@H](CCN)NC(=O)[C@H](CCN)NC(=O)[C@H](CC(C)C)NC(=O)[C@@H](Cc2ccccc2)NC(=O)[C@H](CCN)NC1=O)[C@@H](C)O [Compound 90] (H-[dC](X13)T[Dab][Dab][Dab][dF]L[Dab][Dab]T; lactam 4-C) |  |  |  |  |  |  | 

More lines, now with the values behind:

Row | Structure (SMILES) | MIC E. coli ATCC 25922 (E. coli ATCC 25922; ATCC 25922) | MIC A. baumannii ATCC 19606 (A. baumannii ATCC 19606; ATCC 19606) | MIC P. aeruginosa ATCC 27853 (P. aeruginosa ATCC 27853; ATCC 27853) | MIC K. pneumoniae ATCC 33495 (K. pneumoniae ATCC 33495; ATCC 33495) | MIC K. pneumoniae ATCC 700603 ([1]; ATCC 700603) | MIC K. pneumoniae ATCC MS6671 ([2]; ATCC MS6671) | MIC E. coli ATCC MS8345 (E. coli ATCC MS8345; ATCC MS8345) | MIC E. coli ATCC 25922 (E. coli ATCC 25922; median of triplicate) | MIC A. baumannii ATCC 19606 (A. baumannii ATCC 19606; median of triplicate) | MIC P. aeruginosa ATCC 27853 (P. aeruginosa ATCC 27853; median of triplicate) | MIC K. pneumoniae ATCC 33495 (K. pneumoniae ATCC 33495; median of triplicate) | MIC K. pneumoniae ATCC 700603 ([1]; median of triplicate) | MIC K. pneumoniae ATCC MS6671 ([2]; median of triplicate) | MIC E. coli ATCC MS8345 (E. coli ATCC MS8345; colistin-resistant strain, median of triplicate)
4 | CCCCCCCCCCCC(=O)N[C@@H](CSCCOC(=O)c1ccccc1)C(=O)N[C@@H](CCN)C(=O)N[C@H](C(=O)N[C@@H](CCN)C(=O)N[C@H]1CCNC(=O)[C@H]([C@@H](C)O)NC(=O)[C@H](CCN)NC(=O)[C@H](CCN)NC(=O)[C@H](CSCCOC(=O)c2ccccc2)NC(=O)[C@@H](Cc2ccccc2)NC(=O)[C@H](CCN)NC1=O)[C@@H](C)O [Compound 52] (Lauroyl-C(Ethyl(2-OBz))[Dab]T[Dab][Dab][Dab][dF]C(Ethyl(2-OBz))[Dab][Dab]T; lactam 5-C) |  |  |  |  |  |  |  | 2 to 4 µg/mL | 2 to 4 µg/mL | 4 µg/mL (≈ 2.45 µM) | 2 to 4 µg/mL | 4 µg/mL (≈ 2.45 µM) | >32 µg/mL | 2 to 4 µg/mL
5 | CCCCCC(=O)OCCSC[C@@H](N)C(=O)N[C@H](C(=O)N[C@@H](CCN)C(=O)N[C@H]1CCNC(=O)[C@H]([C@@H](C)O)NC(=O)[C@H](CCN)NC(=O)[C@H](CCN)NC(=O)[C@H](CC(C)C)NC(=O)[C@@H](Cc2ccccc2)NC(=O)[C@H](CCN)NC1=O)[C@@H](C)O [Compound 91] (H-[dC](X1)T[Dab][Dab][Dab][dF]L[Dab][Dab]T; lactam 4-C) | 1 µg/mL (≈ 0.827 µM) | 4 µg/mL (≈ 3.31 µM) | 2 µg/mL (≈ 1.65 µM) | 1 µg/mL (≈ 0.827 µM) | 2 µg/mL (≈ 1.65 µM) | >32 µg/mL | 16 µg/mL (≈ 13.2 µM) |  |  |  |  |  |  | 
6 | CCCCCCCC(=O)OCCSC[C@@H](N)C(=O)N[C@H](C(=O)N[C@@H](CCN)C(=O)N[C@H]1CCNC(=O)[C@H]([C@@H](C)O)NC(=O)[C@H](CCN)NC(=O)[C@H](CCN)NC(=O)[C@H](CC(C)C)NC(=O)[C@@H](Cc2ccccc2)NC(=O)[C@H](CCN)NC1=O)[C@@H](C)O [Compound 92] (H-[dC](X4)T[Dab][Dab][Dab][dF]L[Dab][Dab]T; lactam 4-C) | 1 µg/mL (≈ 0.809 µM) | 2 µg/mL (≈ 1.62 µM) | 2 µg/mL (≈ 1.62 µM) | 2 µg/mL (≈ 1.62 µM) | 2 µg/mL (≈ 1.62 µM) | >32 µg/mL | 16 µg/mL (≈ 12.9 µM) |  |  |  |  |  |  | 
